Source: patent US11395854B2, “Trialkyl cationic lipids and methods of use thereof” (ARBUTUS BIOPHARMA CORPORATION, priority 2012, dated 2022)

Assays:
[1] = tested on: ApoB expression in the livers (Liver ApoB:GAPD mRNA ratio); experiment: murine ApoB siRNA activity model: ApoB knockdown in liver by nucleic acid-lipid particles containing the cationic lipid; assay type: in vivo, female BALB/c mice
Description: This Example compares the effectiveness, in a murine ApoB siRNA activity model, of short chain trialkyl lipids of the present invention with lipids having longer alkyl chains but which are otherwise structurally identical to the short chain trialkyl lipids.
Nucleic acid-lipid particle formulations containing cationic lipids were assessed for their ability to knockdown ApoB expression in the livers of 7 to 9 week old female BALB/c mice. Mice were dosed intravenously (tail vein) in groups of three at either 0.02, 0.03 or 0.05 mg/kg. ApoB knockdown (normalized to the housekeeping gene GAPDH) was measured relative to PBS as a negative control. Each experiment was terminated at 48 hours after dosing.
For comparison to a positive control, the performance of short chain trialkyl lipids of the present invention was compared to a potent cationic lipid, referred to as C2K, that is known to facilitate nucleic acid delivery, in vivo, in nucleic acid-lipid particles (Nature Biotech., Vol 28(2),172 (2010)).

[2] = tested on: ApoB (normalized to the housekeeping gene GAPDH), liver; experiment: murine ApoB model with a different, less potent siRNA sequence; liver ApoB silencing via Quantigene Assay; assay type: in vivo, Mice; conditions: 0.04 mg/kg siRNA; for ApoB gene silencing relative to PBS control (Liver ApoB:GAPD mRNA ratio): intravenous (tail vein), 48 h after dosing, different, less potent siRNA sequence
Description: In another experiment, two more lipids of the present invention (Compounds 62 and 71) were formulated into lipid nanoparticles with siRNA to target ApoB. Mice were dosed intravenously (tail vein) and sacrificed 48 h after dosing. Livers were harvested and homogenized, and the level of ApoB silencing (normalized to the housekeeping gene GAPDH) then measured via Quantigene Assay. The results are shown in Table 6 and are expressed as a percentage, relative to a PBS-treated negative control group. […] Inter-experiment comparisons are therefore not possible: […]

[3] = injected dose of 0.03 mg/kg, separate experiment

SMILES | activity compared to C2K ([1]; injected dose of 0.02 mg/kg) | activity compared to C2K [1, 3] | further results
CCCCC/C=C\CCCC(CCC/C=C\CCCCC)C(CC/C=C\CCCCC)OC(=O)CCCN(C)C (centres unmarked) [Compound 22, (6Z,15Z)-11-((Z)-dec-4-enyl)henicosa-6,15-dien-10-yl 4-(dimethylamino)butanoate] | greater activity than C2K |  | 
CCCCC/C=C\CCC(CC/C=C\CCCCC)C(CC/C=C\CCCCC)OC(=O)CCCN(C)C (centres unmarked) [Compound 40] | greater activity than C2K |  | 
CCCCC/C=C\CCCC(CCC/C=C\CCCCC)C(CCC/C=C\CCCCC)OC(=O)N(C)CCCN(C)C (centres unmarked) [Compound 23, (6Z,16Z)-12-((Z)-dec-4-enyl)docosa-6,16-dien-11-yl 3-(dimethylamino)propyl(methyl)carbamate] |  | greater activity than C2K | 
CCCCC/C=C\CCCC(CCC/C=C\CCCCCC)C(CC/C=C\CCCCC)OC(=O)NCCCN(C)C (centres unmarked) [Compound 27, (6Z,15Z)-11-((Z)-dec-4-en-1-yl)docosa-6,15-dien-10-yl (3-(dimethylamino)propyl)carbamate] | greater activity than C2K |  | 
CCCCC/C=C\CCCC(CCC/C=C\CCCCC)C(CCC/C=C\CCCCC)OC(=O)CCCCN(C)C (centres unmarked) [Compound 13, (6Z,16Z)-12-((Z)-dec-4-enyl)docosa-6,16-dien-11-yl 5-(dimethylamino)pentanoate] | greater activity than C2K | greater activity than C2K | 
CCCCC/C=C\CCCC(CCC/C=C\CCCCC)C(CCC/C=C\CCCCC)OC(=O)CCCN(C)C (centres unmarked) [Compound 9] | greater activity than C2K |  | 
CCCCC/C=C\CCCC(CCC/C=C\CCCCC)C(CCC/C=C\CCCCC)OC(=O)CCCCCN(C)C (centres unmarked) [Compound 11, (6Z,16Z)-12-((Z)-dec-4-enyl)docosa-6,16-dien-11-yl 6-(dimethylamino)hexanoate] |  | greater activity than C2K | 
CCCCC/C=C\CCCC(OC(=O)CCCCN(C)C)C(CCCCCCCCCC)CCCCCCCCCC (centres unmarked) [Compound 50, (Z)-12-decyldocos-6-en-11-yl 5-(dimethylamino)pentanoate] | greater activity than C2K |  | 
CCCCC/C=C\CCCC(CCC/C=C\CCCCC)C(CC/C=C\CCCCC)OC(=O)CCCCN(C)C (centres unmarked) [Compound 19, (6Z,15Z)-11-((Z)-dec-4-enyl)henicosa-6,15-dien-10-yl 5-(dimethylamino)pentanoate] | greater activity than C2K | greater activity than C2K | 
CCCCC/C=C\CCCC(CCC/C=C\CCCCC)C(CCC/C=C\CCCCC)OC(=O)NCCN(C)C (centres unmarked) [Compound 25, (6Z,16Z)-12-((Z)-dec-4-enyl)docosa-6,16-dien-11-yl 2-(dimethylamino)ethylcarbamate] |  | greater activity than C2K | 
CCCCC/C=C\C/C=C\CCCCCCCCC(CCCCCCCC/C=C\C/C=C\CCCCC)OCCCN(C)C [DLin-MP-DMA, reference compound] |  |  | effectiveness compared to C2K ([1]; three separate experiments, 0.03 or 0.05 mg/kg): more effective than C2K; ApoB gene silencing relative to PBS control (Liver ApoB:GAPD mRNA ratio) [2]: −32%
CC(C)CCCC(C)CCC(CCC(C)CCCC(C)C)C(CCC(C)CCCC(C)C)OC(=O)CCCCN(C)C (centres unmarked) [Compound 71, 10-(3,7-dimethyloctyl)-2,6,13,17-tetramethyloctadecan-9-yl 5-(dimethylamino)pentanoate] |  |  | ApoB gene silencing relative to PBS control (Liver ApoB:GAPD mRNA ratio) [2]: −29%
CCCCC/C=C\CCCC(CCC/C=C\CCCCC)C(CCC/C=C\CCCCC)OCCCCN(C)C (centres unmarked) [Compound 62, 4-(((6Z,16Z)-12-((Z)-dec-4-en-1-yl)docosa-6,16-dien-11-yl)oxy)-N,N-dimethylbutan-1-amine] |  |  | activity compared to the DLin-MP-DMA control [2]: significantly more active; ApoB gene silencing relative to PBS control (Liver ApoB:GAPD mRNA ratio) [2]: −56%
